According to US20090298890A1, “NEW N-METHYL BENZAMIDE DERIVATIVES” (BAYER CROPSCIENCE SA, priority 2006, published 2009):

Assays:
Alternaria alternata = assay: Cell test on Alternaria alternata; assay type: cell-based; details: under similar conditions (10 ppm, OD 620 nm after 5 days at 20° C.)
Experimental: Cell Test on Alternaria Alternata The growth of Alternaria alternata is performed on PDA medium at 20° C. under black light during 14 days. The PDA medium is prepared by mixing 39 grams of PDA (Merck) in 1 liter of demineralized water. The medium is sterilized by autoclave 15 minutes at 121° C. After 14 days of growth, the spores of Alternaria alternata are recovered in sterilized water and the concentration of spores adjusted to 10^6 spores per ml. The compounds is solubilized in DMSO and added to sterile liquid glucose/mycopeptone medium (14.6 g/l of D-glucose, 7.1 g/l of mycological peptone (Oxoid) and 1.4 g/l of yeast extract (Merck)) at a concentration of 10 ppm. The medium is inoculated with the spore suspension at a concentration of 10^5 spores per ml. The efficacy of the compounds is assessed by OD measurement at 620 nm after 5 days at 20° C. in comparison with a control.

Pyrenophora teres = assay: In vivo test on Pyrenophora teres (barley net blotch); details: barley plants (Express variety), preventive spray 24 hours before contamination, dose 330 ppm, grading 12 days after contamination vs control plants
Experimental: In Vivo Test on Pyrenophora Teres (Barley Net Blotch)
The active ingredients tested are prepared by homogenization in a mixture of acetone/tween/DMSO, then diluted with water to obtain the desired active material concentration.
Barley plants (Express variety), sown on a 50/50 peat soil-pozzolana substrate in starter cups and grown at 12° C., are treated at the 1-leaf stage (10 cm tall) by spraying with the active ingredient prepared as described above. Plants, used as controls, are treated with the mixture of acetone/tween/DMSO/water not containing the active material.
After 24 hours, the plants are contaminated by spraying them with an aqueous suspension of Pyrenophora teres spores (12,000 spores per ml). The spores are collected from a 12-day-old culture. The contaminated barley plants are incubated for 24 hours at about 20° C. and at 100% relative humidity, and then for 12 days at 80% relative humidity.
Grading is carried out 12 days after the contamination, in comparison with the control plants.

For `O=C(NOCc1ncc(C(F)(F)F)cc1Cl)c1c(F)cccc1F` [Compound 502, N-{[3-chloro-5-(trifluoromethyl)pyridin-2-yl]methoxy}-2,6-difluorobenzamide], the activity (Alternaria alternata) was “did not show any activity”.
With `O=C(NCOc1ncc(C(F)(F)F)cc1Cl)c1ccccc1C(F)(F)F` [Compound 1, N-({[3-chloro-5-(trifluoromethyl)pyridin-2-yl]oxy}methyl)-2-(trifluoromethyl)benzamide] the protection (Pyrenophora teres) was “at least 60%”.
With `O=C(NOCc1ncc(C(F)(F)F)cc1Cl)c1c(Cl)cccc1Cl` [Compound 501] the activity (Alternaria alternata) was “did not show any activity”.
